Reference: patent publication US6399577B1, “Compositions and methods using myelin-associated glycoprotein (MAG) and inhibitors thereof” (Research Foundation of CUNY, Hunter College, priority 1995, dated 2002)

Experiments:
MAG [1] = target: T1, MAG (Rattus norvegicus, UniProt P07722); assay: Radiolabelled MAG-Fc binding to cerebellar neurons; settings: PND1 cerebellar neurons; antibody 5 μg/ml or sialidase treatment of neurons before binding
T1 construct: consisting of the extracellular domain of MAG fused to the Fc region of IgG (MAG-Fc); host or cells: COS cells
T1 sequence (P07722 20-516 limits assumed): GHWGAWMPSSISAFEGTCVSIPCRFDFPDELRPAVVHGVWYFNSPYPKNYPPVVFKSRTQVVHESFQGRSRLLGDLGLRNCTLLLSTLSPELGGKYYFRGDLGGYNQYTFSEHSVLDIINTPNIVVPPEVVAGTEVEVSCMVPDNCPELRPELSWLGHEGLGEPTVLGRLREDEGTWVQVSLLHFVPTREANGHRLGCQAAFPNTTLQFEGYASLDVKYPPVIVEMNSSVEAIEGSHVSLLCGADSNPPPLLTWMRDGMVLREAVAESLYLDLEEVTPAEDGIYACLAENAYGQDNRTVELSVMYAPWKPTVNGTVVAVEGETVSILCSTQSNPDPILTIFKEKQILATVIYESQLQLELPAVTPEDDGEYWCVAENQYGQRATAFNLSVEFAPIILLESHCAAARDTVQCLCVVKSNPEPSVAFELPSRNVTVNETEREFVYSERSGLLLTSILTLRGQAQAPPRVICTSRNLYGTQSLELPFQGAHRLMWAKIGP
Procedure: FIG. 4. sialic acid-dependent Binding of MAG to Cerebellar and DRG Neurons. Radiolabelled MAG-Fc (solid bars) was allowed to bind to PND 1 cerebellar and DRG neurons. Incubations were also carried out in the presence of 5 μg/ml of MAG 513 monoclonal antibody (dark hatched bars) or with neurons that had been desialyated (speckled bars). Each experiment was carried out in quadruplicate. The results are the mean of 3 experiments.
MAG binds to all types of neurons tested in a sialic acid-dependent fashion (Kelm et al., Curr. Biol., 4, pp. 965-72 (1994)). […] Sialidase is an enzyme which removes sialic acid from glycoconjugates.

MAG [2] = target: T2, MAG (Rattus norvegicus, UniProt P07722); assay: Neurite outgrowth of DRG neurons on MAG-expressing and control CHO cells: reversal of promotion by MAG; assay type: cell-based; settings: for % Reversal of Promotion: PND 2 DRG neurons; for effect on the promotion of neurite outgrowth by MAG: increasing concentrations of sugar, text summary of TABLE 2
T2 construct: host or cells: dhfr-deficient CHO cells (CHO-MAG2)
T2 sequence (P07722 20-626): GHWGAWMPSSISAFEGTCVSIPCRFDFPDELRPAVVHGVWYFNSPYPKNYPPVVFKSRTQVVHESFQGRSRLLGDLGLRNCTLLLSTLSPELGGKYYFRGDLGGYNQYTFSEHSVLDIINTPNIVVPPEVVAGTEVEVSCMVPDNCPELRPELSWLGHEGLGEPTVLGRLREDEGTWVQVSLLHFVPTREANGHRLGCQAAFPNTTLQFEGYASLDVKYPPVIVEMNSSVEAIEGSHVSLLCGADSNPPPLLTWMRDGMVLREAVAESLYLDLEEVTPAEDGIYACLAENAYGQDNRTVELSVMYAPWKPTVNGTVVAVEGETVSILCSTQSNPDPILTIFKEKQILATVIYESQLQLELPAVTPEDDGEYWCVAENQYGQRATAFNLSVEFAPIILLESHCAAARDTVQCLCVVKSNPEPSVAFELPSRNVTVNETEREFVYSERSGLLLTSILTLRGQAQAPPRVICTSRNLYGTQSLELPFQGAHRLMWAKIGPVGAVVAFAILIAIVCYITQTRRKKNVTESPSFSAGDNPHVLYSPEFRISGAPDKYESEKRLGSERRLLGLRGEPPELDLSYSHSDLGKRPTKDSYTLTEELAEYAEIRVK
Procedure: (§1) Confluent monolayers of control and MAG-expressing CHO cells were established over a 24-hour (h) period in individual chambers of an 8-well tissue culture slide (Lab-Tek). […] Culture medium was SATO containing 2% FCS. Where indicated, 20 mU of VCS was included throughout the coculture period (see Example 4), or monolayers were incubated with small oligosaccharides for one hour before adding the neuronal cell suspension and included throughout the coculture period. After periods of time as indicated, the cocultures were fixed for 30 min with 4% paraformaldehyde and permeabilized with ice-cold methanol for 2 min. The cells were then blocked for 30 min with DMEM containing 10% FCS and incubated for 2 h with a rabbit polyclonal antibody against the neuronal marker GAP43 (1:4000). Cells were washed three times with PBS-BSA (2%) and then incubated for 30 min at room temperature with a biotinylated donkey anti-rabbit Ig (1:300, Amersham), washed three times, and incubated with streptavidin-conjugated Texas Red (1:300, Amersham) for 30 min. After three more washes, the slides were mounted in Permfluor (Baxter) and viewed with a Zeiss fluorescent microscope. The length of the longest neurite for each GAP43-positive neuron was determined using the Biological Detection System image analysis program (Pittsburgh).
The transfected CHO cell assay described in Example 2 may also be used to screen and identify agents that alter neurite growth properties of a particular neuronal cell type and age in a MAG-dependent fashion. Neurite outgrowth was compared for cerebellar (TABLE 1) and DRG (TABLE 2) neurons from PND 2 animals, grown on MAG-expressing and control CHO cells as described in Example 2. Where indicated, small sialic acid-bearing sugars were included in the co-cultures at increasing concentrations. 100% inhibition was taken as the difference in length of neurites on control and MAG-expressing CHO cells. Results are the mean of at least two experiments, with at least 150 neurons measured for each experiment. DD-NANA=2,3-dideoxy sialic acid; SL=sialo 2,3-α lactose.
Single cell suspensions of different neurons at various postnatal ages were washed and resuspended in phosphate-buffered saline (PBS). Approximately 2×10^6 cells were incubated with 50 mU of Vibrio cholera sialidase (VCS, Calbiochem) (a neuraminidase) in a final volume of 0.5 ml for 2 hours at 37° C. Neurons were washed with PBS and resuspended in SATO medium containing 2% FCS for neurite outgrowth experiments, or in PBS for neurite binding assays.

[3] = tested on: retinal ganglion (RG), hippocampal (HN), motor neurons (MN) and superior-cervical ganglion (SCG); assay: Neurite outgrowth of different neuronal cell types on MAG-expressing versus control CHO cells; assay type: cell-based, rat; settings: neurons from one-day old rats (PND1)
Procedure: FIG. 3. Effect of MAG on Neurite Outgrowth from Different Neuronal Cell Types. Various neurons from PND1 animals were isolated and grown overnight on MAG-expressing (dark hatched) or control (light hatched) CHO cells. Average neurite length was calculated as described in FIG. 1.
as §1, with “Cells were washed three times with PBS-BSA (2%) and then incubated for 30 min at room temperature with a biotinylated donkey anti-rabbit Ig (1:300, Amersham), washed three times, and incubated with streptavidin-conjugated Texas Red (1:300, Amersham) for 30 min. After three more washes, the slides were mounted in Permfluor (Baxter) and viewed with a Zeiss fluorescent microscope.” left out

DRG neurons = assay: Neurite outgrowth of DRG neurons on MAG-expressing versus control CHO cells; assay type: cell-based, rat
Procedure: FIG. 2. Effect of MAG on Neurite Outgrowth from DRG Neurons of Different Ages. […] 1.
as §1

cerebellar neurons [4] = assay: Neurite outgrowth of cerebellar neurons on MAG-expressing versus control CHO cells; assay type: cell-based, rat; settings: all ages tested, four MAG-expressing CHO cell lines
Procedure: FIG. 1. Inhibition of Neurite outgrowth from Cerebellar Neurons by MAG. Cerebellar neurons from post-natal day (PND) 1, 4 and 7 were grown overnight on a monolayer of MAG-expressing (clear bars) or control transfected CHO cells (hatched bars). Neurons were stained for GAP-43 antigen and neurite length was measured and the average […] length calculated from at least 150 measurements (+/−SEM).
as §1, with “Cells were washed three times with PBS-BSA (2%) and then incubated for 30 min at room temperature with a biotinylated donkey anti-rabbit Ig (1:300, Amersham), washed three times, and incubated with streptavidin-conjugated Texas Red (1:300, Amersham) for 30 min. After three more washes, the slides were mounted in Permfluor (Baxter) and viewed with a Zeiss fluorescent microscope.” left out

cerebellar neurons [5] = settings: Mukhopadhyay et al.; cited from earlier work
[6] = 1 mM sugar, MAG-expressing CHO cells

## sialidase: Vibrio cholera sialidase (a neuraminidase), enzyme which removes sialic acid from glycoconjugates
MAG [1]
  effect on binding of MAG to cerebellar neurons: abolished
MAG [2]; newborn (PND1) DRG neurons desialyated with sialidase
  effect on promotion of axonal outgrowth by MAG: completely abolished

## CC(=O)N[C@H]1[C@H]([C@H](O)[C@H](O)CO)OC(C(=O)O)=C[C@@H]1O [DD NANA, 2,3-dideoxy sialic acid]
MAG [2]; [6]
  % Reversal of Promotion: 0%
MAG [2]; 10 mM sugar, MAG-expressing CHO cells
  % Reversal of Promotion: 51%
MAG [2]; 20 mM sugar, MAG-expressing CHO cells
  % Reversal of Promotion: 97%
MAG [2]; 20 mM sugar, control CHO cells
  % Reversal of Promotion: 0%
MAG [2]
  effect on the promotion of neurite outgrowth by MAG: abolished the promotion of neurite outgrowth by MAG completely

## CC(=O)N[C@H]1[C@H]([C@H](O)[C@H](O)CO)O[C@@](O[C@H]2[C@@H](O)[C@@H](CO)O[C@@H](O[C@H]3[C@H](O)[C@@H](O)C(O)O[C@@H]3CO)[C@@H]2O)(C(=O)O)C[C@@H]1O (stereo partly drawn) [SL, sialo 2,3-α lactose]
MAG [2]; [6]
  % Reversal of Promotion: 0%
MAG [2]; 5 mM sugar, MAG-expressing CHO cells
  % Reversal of Promotion: 96%
MAG [2]; 18 mM sugar, MAG-expressing CHO cells
  % Reversal of Promotion: 98%
MAG [2]; 18 mM sugar, control CHO cells
  % Reversal of Promotion: 0%
MAG [2]
  effect on the promotion of neurite outgrowth by MAG: abolished the promotion of neurite outgrowth by MAG completely

B1: MAG: myelin-associated glycoprotein expressed on the surface of transfected CHO cells (protein, UniProt P07722 20-626, looked up)
Myelin-associated glycoprotein: GHWGAWMPSSISAFEGTCVSIPCRFDFPDELRPAVVHGVWYFNSPYPKNYPPVVFKSRTQVVHESFQGRSRLLGDLGLRNCTLLLSTLSPELGGKYYFRGDLGGYNQYTFSEHSVLDIINTPNIVVPPEVVAGTEVEVSCMVPDNCPELRPELSWLGHEGLGEPTVLGRLREDEGTWVQVSLLHFVPTREANGHRLGCQAAFPNTTLQFEGYASLDVKYPPVIVEMNSSVEAIEGSHVSLLCGADSNPPPLLTWMRDGMVLREAVAESLYLDLEEVTPAEDGIYACLAENAYGQDNRTVELSVMYAPWKPTVNGTVVAVEGETVSILCSTQSNPDPILTIFKEKQILATVIYESQLQLELPAVTPEDDGEYWCVAENQYGQRATAFNLSVEFAPIILLESHCAAARDTVQCLCVVKSNPEPSVAFELPSRNVTVNETEREFVYSERSGLLLTSILTLRGQAQAPPRVICTSRNLYGTQSLELPFQGAHRLMWAKIGPVGAVVAFAILIAIVCYITQTRRKKNVTESPSFSAGDNPHVLYSPEFRISGAPDKYESEKRLGSERRLLGLRGEPPELDLSYSHSDLGKRPTKDSYTLTEELAEYAEIRVK
[3]
  effect on neurite growth: potent inhibitor of neurite growth in all cell types tested
DRG neurons; DRG neurons from adult rats
  inhibition of neurite outgrowth: about 40%
DRG neurons; DRG neurons from two-day old rats
  neurite length on MAG-expressing cells compared to control cells: almost twice as long
Cerebellar neurons [4]
  inhibition of neurite outgrowth compared to control cells: at least 70%

B2: Po: another myelin protein expressed by CHO cells, specificity control (protein, UniProt P25189 30-248, looked up)
Myelin protein P0: IVVYTDREVHGAVGSRVTLHCSFWSSEWVSDDISFTWRYQPEGGRDAISIFHYAKGQPYIDEVGTFKERIQWVGDPRWKDGSIVIHNLDYSDNGTFTCDVKNPPDIVGKTSQVTLYVFEKVPTRYGVVLGAVIGGVLGVVLLLLLLFYVVRYCWLRRQAALQRRLSAMEKGKLHKPGKDASKRGRQTPVLYAMLDHSRSTKAVSEKKAKGLGESRKDKK
Cerebellar neurons [5]
  effect on neurite outgrowth of CHO cells expressing the protein: lack of effect
